The text below walks through data of patent EP1388586A2, “Identification of broadly reactive DR restricted epitopes” (priority 1998, dated 1999).

The target of one test is T1, DRB1*0101 (DR1) (Homo sapiens, UniProt P01903+P01911, A100R/D57E/F55L/F60I/F76Y/I96L/L162R/M171V/P40L/Q125E/R42F/V115G/Y59C).
T1 construct: used as sources of human HLA class II molecules; endogenous in cells; host or cells: LG2 (EBV-transformed homozygous B cell line)
Put plainly: Class II peptide-binding assay, DR1.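 For all read-outs here: competition assay: unlabeled test peptides inhibit binding of a radiolabeled probe peptide to purified DR, with half-maximal inhibition taken as an approximate dissociation constant Kd.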 Particulars: for IC50: Table V B) Correct Predictions, read-out: Binding Capacity (IC50% nM) DR1.

The next test has as its target DRB1*0405 (DR4w15) (Homo sapiens, UniProt P01903+P01911, A100R/A169T/D86S/F76Y/I96L/K127E/L162R/M171V/N62H/P40V/Q125Y/R42H/S133A/S149N/S66Y/V115G/V209L/W38E). As to the kind of experiment: Class II peptide-binding assay, DR4w15. The following applies: for IC50: Table V B) Correct Predictions, read-out: Binding Capacity (IC50% nM) DR4w15; for pIC50: Table V A) Non Predictions, read-out: Binding Capacity DR4w15.

For test [1], the system named is panel of purified HLA DR molecules. Format: binding, human.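 Note: competitive inhibition of radiolabeled probe peptide binding to purified HLA DR molecules, with inhibitory potency of unlabeled peptides taken as an approximation of affinity.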
Another test addresses DRB1*0701 (DR7) (Homo sapiens, UniProt P01903+P01911, A100R/A102G/A103Q/D57E/D86V/E43K/F76Y/K127E/L162R/M171V/P40G/Q125H/Q99D/R33Q/R42Y/R54Q/S133A/S66F/T210M/V115G/Y107V/Y59L/Y89S). Put plainly: Class II peptide-binding assay, DR7.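 For all read-outs here: unlabeled peptides compete with an iodinated probe peptide for binding to affinity-purified HLA-DR at neutral pH, DR amount titered to bind a small tracer fraction, IC50 approximating Kd.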 Particulars: for IC50: Table V B) Correct Predictions, read-out: Binding Capacity (IC50% nM) DR7.
Another test addresses T2, DRB5*0101 (DR2w2a) (Homo sapiens, UniProt P01903+Q30154).
T2 construct: used as sources of human HLA class II molecules; endogenous in cells; host or cells: GM3107 (EBV-transformed homozygous B cell line)
As to the kind of experiment: Class II peptide-binding assay, DR2w2a (DR2w2B2).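 Note: competitive binding assay: unlabeled peptide inhibiting binding of a radiolabeled probe peptide to purified DR molecules at pH 7.0, IC50 approximating Kd, lower means stronger binding.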

Another test deals with T3, DRB1*0401 (DR4w4) (Homo sapiens, UniProt P01903+P01911, A100K/A169T/F76Y/I96L/K127E/L162R/M171V/N62H/P40V/Q125Y/R42H/S133A/S149N/S66Y/V115G/V209L/W38E).
T3 construct: used as sources of human HLA class II molecules; endogenous in cells; host or cells: PREISS (EBV-transformed homozygous B cell line)
As to the kind of experiment: Class II peptide-binding assay, DR4w4.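 Note: unlabeled test peptides compete with a radiolabeled probe peptide for binding to affinity-purified HLA-DR, with DR amount titrated to capture a small fraction of label, IC50 approximating Kd.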

The next test deals with DRB1*1302 (DR6w19) (Homo sapiens, UniProt P01903+P01911, A100E/A169T/K41T/L162R/M171V/P40S/Q125H/Q178H/Q39Y/Q99D/R42S/S66N/T262R/V115G/W38E/Y61H). The test is classed as binding. The following applies: for IC50: Table V B) Correct Predictions, read-out: Binding Capacity (IC50% nM) DR6w19.
Sequence of DRB1*1302 (DR6w19) (P01903 26-254, other chains not shown): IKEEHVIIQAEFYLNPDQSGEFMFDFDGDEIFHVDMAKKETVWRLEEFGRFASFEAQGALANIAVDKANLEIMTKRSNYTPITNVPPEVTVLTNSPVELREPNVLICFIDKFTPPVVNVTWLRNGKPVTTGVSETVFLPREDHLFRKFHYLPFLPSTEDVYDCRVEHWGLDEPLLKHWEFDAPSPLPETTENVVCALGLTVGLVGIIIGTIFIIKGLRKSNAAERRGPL
For the next test, the target named is T4, DRB1*0802 (DR8w2) (Homo sapiens, UniProt P01903+P01911, A100R/A103L/A169T/F76Y/H45Y/I96F/K41T/L162R/M171V/P40S/Q125H/Q178H/Q39Y/Q99D/R218S/R42G/S66Y/V115G/W38E).
T4 construct: used as sources of human HLA class II molecules; endogenous in cells; host or cells: OLL (EBV-transformed homozygous B cell line)
Put plainly: Class II peptide-binding assay, DR8w2.

For a further test, the target named is T5, DRB1*1201 (DR5w12) (Homo sapiens, UniProt P01903+P01911, A100R/A169T/D57E/D86V/F55L/H45Y/K41T/L162R/M171V/P40S/Q125H/Q178H/Q39Y/Q99D/R42G/S66L/T262R/V114A/V67L/W38E/Y59H/Y61H/Y89S).
T5 construct: used as sources of human HLA class II molecules; endogenous in cells; host or cells: Herluf (EBV-transformed homozygous B cell line)
As to the kind of experiment: Class II peptide-binding assay, DR5w12.

In another test the target is T6, DRB1*0901 (DR9) (Homo sapiens, UniProt P01903+P01911, A100R/A103E/D57H/D86V/F55Y/F60I/F76Y/I96F/K127E/L162R/M171V/P40D/Q125H/Q99R/R33Q/R42F/S133A/S66N/T210M/V115G/W38K/Y107V/Y59G/Y89S).
T6 construct: used as sources of human HLA class II molecules; endogenous in cells; host or cells: HTC9074 (EBV-transformed homozygous B cell line); gift of Dr. Paul Harris
Put plainly: Class II peptide-binding assay, DR9. Particulars: Table V A) Non Predictions; read-out: Binding Capacity DR9.

The next test has as its target T7, DRB1*1101 (DR5w11) (Homo sapiens, UniProt P01903+P01911, A100R/A169T/A87E/I96F/K41T/L162R/M171V/P40S/Q125H/Q178H/Q39Y/Q99D/R42S/S66Y/T262R/V115G/W38E).
T7 construct: used as sources of human HLA class II molecules; endogenous in cells; host or cells: SWEIG (EBV-transformed homozygous B cell line)
As to the kind of experiment: Class II peptide-binding assay, DR5w11.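 Note: competition by unlabeled test peptide against iodinated probe peptide binding to affinity-purified HLA-DR, class II amount titrated beforehand, half-maximal inhibitory concentration read as approximate Kd.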

The next test concerns the target T8, DRB1*1501 (DR2w2b) (Homo sapiens, UniProt P01903+P01911).
T8 construct: expressed in transfected cells; host or cells: L466.1 transfected fibroblasts
Put plainly: Class II peptide-binding assay, DR2w2b (DR2w2B1).

Another test deals with T9, DRB4*0101 (DRw53) (Homo sapiens, UniProt P01903+P13762, G164S).
T9 construct: expressed in transfected cells; host or cells: L257.6 transfected fibroblasts
Format: binding. Particulars: read-out: DRw53 nM (In IC50 Format).

The next test has as its target T10, DRB10404 (DR4w14) (Homo sapiens, UniProt P01903+P01911, A100R/A169T/F76Y/I96L/K127E/L162R/M171V/N62H/P40V/Q125Y/R42H/S133A/S149N/S66Y/V209L/W38E).
T10 construct: used as sources of human HLA class II molecules; endogenous in cells; host or cells: BIN40 (EBV-transformed homozygous B cell line)
As to the kind of experiment: Class II peptide-binding assay, DR4w14.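 Note: unlabeled peptides compete with a radiolabeled probe for binding to affinity-purified HLA-DR, neutral pH, class II amount titrated to bind a small fraction of label, IC50 approximates Kd.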 The following applies: read-out: DR4w14 nM (In IC50 Format); purified HLA DR4w14.

[2] abbreviates: Table V A) Non Predictions, read-out: Binding Capacity DR1.
[3] abbreviates: Table V A) Non Predictions, 12 DR molecules listed.
[4] abbreviates: Table V A) Non Predictions, read-out: Binding Capacity DR5w11.
Setting [5] is: Table V A) Non Predictions, read-out: Binding Capacity DR4w4.
Setting [6] is: Table V A) Non Predictions, read-out: Binding Capacity DR2w2b.
The mark [7] stands for this setting: Table V A) Non Predictions, read-out: Binding Capacity DR8w2.

For orientation: IC50 means the concentration that gives 50% inhibition.

pIC50: −log10 of the molar value. Like-named read-outs stand apart in the source and are kept apart here. Ends that are not written are not given here. A value given as a limit tells only on which side of the number the result lay.

T7 sequence (P01903 26-254, other chains not shown): as above
Description for DRB1*0405 (DR4w15): (§1) Class II peptide-binding assays. […] These assays were chosen as to be representative of the most common DR alleles.
(§2) Radiolabeled peptides were iodinated using the chloramine-T method. […] In appropriate stoichiometric conditions, the IC50 of an unlabeled test peptide to the purified DR is a reasonable approximation of the affinity of interaction (Kd). Peptides were tested in two to four completely independent experiments. […] Final detergent concentration in the incubation mixture was 0.05% Nonidet P-40. Assays were performed at pH 7.0 with the exception of DR3, which was performed at pH 4.5, and DRw53, which was performed at pH 5.0.
(§3) All subsequent inhibition and direct binding assays were the performed using these class II concentrations.
DR4w15. The β4 product DRw53 is co-expressed with DR4w15 and the determination of the specificity of the DR4w1 binding assay is complicated in that the same radiolabeled ligand is used for both the DR4w15 and DRw53 binding assays.
Description for DRB1*0802 (DR8w2): as §1, §2, §3
DR8w2 and DR8w3. The β1 specificity of the DR8w2 and DR8w3 assays is obvious in that no β3 (and/or B4 and β5) molecule is expressed.
Description for DRB1*0901 (DR9): as §1
(§4) In appropriate stoichiometric conditions, the IC50 of an unlabeled test peptide to the purified DR is a reasonable approximation of the affinity of interaction (Kd). Peptides were tested in two to four completely independent experiments. […] Final detergent concentration in the incubation mixture was 0.05% Nonidet P-40. Assays were performed at pH 7.0 with the exception of DR3, which was performed at pH 4.5, and DRw53, which was performed at pH 5.0.
as §3
Description for DRB1*1201 (DR5w12): as §1, §4, §3
Description for DRB1*1302 (DR6w19): The lysates were cleared of debris and nuclei by centrifugation at 10,000 x g for 20 min.
Affinity purification of HLA-DR molecules.
as §1, §2, §3
DR6w19. The DR6w19 assay utilizes as the source of class II molecules the EBV transformed homozygous cell line H0301, which co-expresses DRB30301 (DR52a). While the radiolabeled ligand used in the DR6w19 assay is different than that used for the DR52a assay, the ligand is related (i.e., is a single substitution analog) to a high affinity DR52a binder. As was done in the case of DR4w15, the specificity of the assay was investigated by analyzing the binding capacity of a panel of naturally occurring peptides for DR6w19 and DR52a.
Description for DRB1*1501 (DR2w2b): as §1, §4, §3
Description for DRB10404 (DR4w14): as §1, §4, §3
Description for DRB4*0101 (DRw53): as §1, §2, §3

As for RVYQEPQVSPPQRAET [Peptide 1136.59.01a], the figures for the IC50 at DRB1*0101 (DR1) and at DRB1*0405 (DR4w15) were 130 nM and 3140 nM, respectively. The “Total Alleles Bound” value in test [1] is given as 3.
LAAIIFLFGPPTALRS [Peptide 1136.28]: the concentration for half-maximal inhibition (IC50) at DRB1*0701 (DR7) was 3620 nM; on DRB1*0101 (DR1), 0.23 nM; on DRB1*0405 (DR4w15), 6670 nM; on DRB5*0101 (DR2w2a) (Table V B) Correct Predictions, read-out: Binding Capacity (IC50% nM) DR2w2a), 1480 nM; at DRB1*0401 (DR4w4) (Table V B) Correct Predictions, read-out: Binding Capacity (IC50% nM) DR4w4), 849 nM; at DRB1*1302 (DR6w19), 3180 nM. For the same substance, the IC50 was 7540 nM at DRB1*0802 (DR8w2) (Table V B) Correct Predictions, read-out: Binding Capacity (IC50% nM) DR8w2) and 4480 nM on DRB1*1201 (DR5w12) (Table V B) Correct Predictions, read-out: Binding Capacity (IC50% nM) DR5w12). The “Total Alleles Bound” value in [1] stood at 3.
For LFHYYFLSEKAPGSTV [Peptide 1136.04], the pIC50 on DRB1*0701 (DR7) (Table V A) Non Predictions, read-out: Binding Capacity DR7) was 5.48; at DRB1*0901 (DR9) it was 5.54; at DRB1*0101 (DR1) (setting [2]), 7.62; at DRB1*0405 (DR4w15), 6.25; on DRB1*1101 (DR5w11) (setting [4]), 7.16; on DRB1*0401 (DR4w4) (setting [5]), 7.70. Further, the pIC50 at DRB1*1501 (DR2w2b) (setting [6]) was 5.90; on DRB1*0802 (DR8w2) (setting [7]) it was 7.26. Further, in [1] ("non-predictions" peptides, beyond DR1, 4w4 or 7), the “additional DR types bound” value was “DR2w2 β2, DR4w15, 5w11 and 8w2”. The “Total Alleles Bound” value in test [1] (setting [3]) is 6.
In the case of QEIDPLSYNYIPVNSN [Peptide 1136.55], the 50% inhibitory concentration (IC50) at DRB1*0701 (DR7) was 2450 nM; on DRB1*0405 (DR4w15), 271 nM; on DRB1*1101 (DR5w11) (Table V B) Correct Predictions, read-out: Binding Capacity (IC50% nM) DR5w11), 4540 nM; at DRB1*1302 (DR6w19) it was 5000 nM. Moreover, the “Total Alleles Bound” value in test [1] was 3.
YARFQRQTTLKAAA-NH2 [Peptide 717.10]: the pIC50 is 5.45 at DRB1*0701 (DR7) (read-out: DR7 nM (In IC50 Format), purified HLA DR7); 8.19 at DRB4*0101 (DRw53); 8.54 on DRB1*0101 (DR1) (read-out: DR1 nM (In IC50 Format), purified HLA DR1); 8.06 at DRB1*1101 (DR5w11) (read-out: DR5w11 nM (In IC50 Format), purified HLA DR5w11); 7.25 at DRB5*0101 (DR2w2a) (read-out: DR2w2B2 nM (In IC50 Format), purified HLA DR2w2β2); 8.25 on DRB1*0401 (DR4w4) (read-out: DR4w4 nM (In IC50 Format), purified HLA DR4w4). Also, at DRB10404 (DR4w14), the pIC50 is 7.89.
Take WLFPRFKFVWVTYASW [Peptide 1136.44.01]: the pIC50 at DRB1*0101 (DR1) (setting [2]) is 6.28; on DRB1*0405 (DR4w15) it was 5.18; on DRB1*1101 (DR5w11) (setting [4]), 5.40; at DRB1*0401 (DR4w4) (setting [5]) it was 6.11; at DRB1*0802 (DR8w2) (setting [7]), 5.20. In test [1] (setting [3]), the “Total Alleles Bound” value is listed as 2.
As for ARLLDIDETEYHADG [Peptide 39.0366], the pIC50 on DRB1*0701 (DR7) (read-out: In IC50 Format DR7 nM, Table VIII, values in parentheses read as lower bounds) is < 4.83; on DRB1*0101 (DR1) (read-out: In IC50 Format DR1 nM, Table VIII, values in parentheses read as lower bounds), 4.30; at DRB1*1101 (DR5w11) (read-out: In IC50 Format DR5w11 nM, Table VIII, values in parentheses read as lower bounds), < 4.60; on DRB5*0101 (DR2w2a) (read-out: In IC50 Format DR2w2B2 nM, Table VIII, values in parentheses read as lower bounds), < 4.54; at DRB1*1302 (DR6w19) (read-out: In IC50 Format DR6w19 nM, Table VIII, values in parentheses read as lower bounds), < 4.46; on DRB1*1501 (DR2w2b) (read-out: In IC50 Format DR2w2B1 nM, Table VIII, values in parentheses read as lower bounds), < 4.82. The pIC50 at DRB1*0802 (DR8w2) (read-out: In IC50 Format DR8w2 nM, Table VIII, values in parentheses read as lower bounds) is < 4.26.
GPPTALRSFGFAFGYM [Peptide 1136.29]: the pIC50 is 6.74 at DRB1*0901 (DR9); 7.49 at DRB1*0101 (DR1) (setting [2]); 6.13 at DRB1*0405 (DR4w15); 5.20 at DRB1*1101 (DR5w11) (setting [4]); 6.33 on DRB5*0101 (DR2w2a) (Table V A) Non Predictions, read-out: Binding Capacity DR2w2a); 5.36 at DRB1*0401 (DR4w4) (setting [5]). For the same substance, the pIC50 at DRB1*1501 (DR2w2b) (setting [6]) is 8.96; on DRB1*0802 (DR8w2) (setting [7]), 5.53; at DRB1*1201 (DR5w12) (Table V A) Non Predictions, read-out: Binding Capacity DR5w12) it was 6.00. The “Total Alleles Bound” value in test [1] (setting [3]) was 7.
